Laboratory results: patent US8722673B2, “Imine compounds for combating invertebrate pests” (BASF SE, priority 2008, dated 2014)

Columns and labels:
Type in all cases: in vivo
[1] = test system: Southern Armyworm (Spodoptera eridania); experiment: Southern armyworm spray test on lima bean plants; details: 96 h, read-out: mortality in comparison with untreated controls
Protocol: (§1) The active compounds were formulated in cyclohexanone as a 10,000 ppm solution supplied in tubes. The tubes were inserted into an automated electrostatic sprayer equipped with an atomizing nozzle and served as stock solutions for which lower dilutions are made in 50% acetone:50% water (v/v). A nonionic surfactant (Kinetic®) was included in the solution at a volume of 0.01% (v/v).
Lima bean plants (variety Sieva) were grown 2 plants to a pot and selected for treatment at the 1st true leaf stage. Test solutions were sprayed onto the foliage by an automated electrostatic plant sprayer equipped with an atomizing spray nozzle. The plants were dried in the sprayer fume hood and then removed from the sprayer. Each pot was placed into perforated plastic bags with a zip closure. About 10 to 11 armyworm larvae were placed into the bag and the bags zipped closed. Test plants were maintained in a growth room at about 25° C. and about 20-40% relative humidity for 4 days, avoiding direct exposure to fluorescent light (24 hour photoperiod) to prevent trapping of heat inside the bags. Mortality and reduced feeding were assessed 4 days after treatment, compared to untreated control plants.

[2] = test system: Tobacco Budworm (Heliothis virescens); experiment: Tobacco budworm microtiter plate diet test; details: 120 h, read-out: mortality in comparison with untreated controls
Protocol: For evaluating control of tobacco budworm (Heliothis virescens) the test unit consisted of 96-well-microtiter plates containing an insect diet and 15-25 H. virescens eggs. The compounds were formulated using a solution containing 75% v/v water and 25% v/v DMSO. Different concentrations of formulated compounds were sprayed onto the insect diet at 10 μl, using a custom built micro atomizer, at two replications. After application, microtiter plates are incubated at about 28±1° C. and about 80±5% relative humidity for 5 days. Egg and larval mortality is then visually assessed.

[3] = test system: Diamond Back Moth (Plutella xylostella); experiment: Diamond back moth leaf-dip test on Chinese cabbage; details: read-out: mortality in comparison with untreated controls
Protocol: (§2) If not otherwise specified the test solutions were prepared as follow:
(§3) The active compound was dissolved at the desired concentration in a mixture of 1:1 (vol:vol) distilled water:acteon. The test solution was prepared the day it was used and in general at concentrations of […] (wt/vol).
Leaves of Chinese cabbage were dipped in test solution and air-dried. Treated leaves were placed in petri dished lined with moist filter paper. Mortality was recorded 24, 72, and 120 hours after treatment.

[4] = test system: Boll Weevil (Anthonomus grandis); experiment: Boll weevil microtiter plate diet test; details: 120 h, read-out: mortality in comparison with untreated controls
Protocol: For evaluating control of boll weevil (Anthonomus grandis) the test unit consisted of 24-well-microtiter plates containing an insect diet and 20-30 A. grandis eggs. The compounds were formulated using a solution containing 75% v/v water and 25% v/v DMSO. Different concentrations of formulated compounds were sprayed onto the insect diet at 20 μl, using a custom built micro atomizer, at two replications. After application, microtiter plates were incubated at about 23±1° C. and about 50±5% relative humidity for 5 days. Egg and larval mortality was then visually assessed.

[5] = test system: Vetch Aphid (Megoura viciae); experiment: Vetch aphid leaf disk microtiter plate test; details: foliar, 120 h, read-out: mortality in comparison with untreated controls
Protocol: For evaluating control of vetch aphid (Megoura viciae) through contact or systemic means the test unit consisted of 24-well-microtiter plates containing broad bean leaf disks. The compounds were formulated using a solution containing 75% v/v water and 25% v/v DMSO. Different concentrations of formulated compounds were sprayed onto the leaf disks at 2.5 μl, using a custom built micro atomizer, at two replications. After application, the leaf disks were air-dried and 5-8 adult aphids were placed on the leaf disks inside the microtiter plate wells. The aphids were then allowed to suck on the treated leaf disks and incubated at about 23±1° C. and about 50±5% relative humidity for 5 days. Aphid mortality and fecundity was then visually assessed.

[6] = test system: Mediterranean Fruitfly (Ceratitis capitata); experiment: Mediterranean fruitfly microtiter plate diet test; details: 120 h, read-out: mortality in comparison with untreated controls
Protocol: For evaluating control of Mediterranean fruitfly (Ceratitis capitata) the test unit consisted of microtiter plates containing an insect diet and 50-80 C. capitata eggs.
The compounds were formulated using a solution containing 75% v/v water and 25% v/v DMSO. Different concentrations of formulated compounds were sprayed onto the insect diet at 5 μl, using a custom built micro atomizer, at two replications. After application, microtiter plates were incubated at about 28±1° C. and about 80±5% relative humidity for 5 days. Egg and larval mortality was then visually assessed.

[7] = test system: Orchid Thrips (Dichromothrips corbetti); experiment: Orchid thrips floral-immersion test; details: 96 h, read-out: mortality in comparison with untreated controls
Protocol: Dichromothrips corbetti adults used for bioassay were obtained from a colony maintained continuously under laboratory conditions. For testing purposes, the test compound was diluted to a concentration of 300 ppm (wt compound: vol diluent) in a 1:1 mixture of acetone:water (vol:vol), plus 0.01% vol/vol Kinetic® surfactant.
Thrips potency of each compound was evaluated by using a floral-immersion technique. Plastic petri dishes were used as test arenas. All petals of individual, intact orchid flowers were dipped into treatment solution and allowed to dry. Treated flowers were placed into individual petri dishes along with 10-15 adult thrips. The petri dishes were then covered with lids. All test arenas were held under continuous light and a temperature of about 28° C. for duration of the assay. After 4 days, the numbers of live thrips was counted on each flower, and along inner walls of each petri dish. The level of thrips mortality was extrapolated from pre-treatment thrips numbers.

[8] = test system: Cowpea Aphid (Aphis craccivora); experiment: Cowpea aphid spray test on potted cowpea plants; details: 500 ppm; population reduction assessed after 24, 72 and 120 hours
Protocol: as §2, §3
Potted cowpea plants colonized with approximately 100-150 aphids of various stages were sprayed after the pest population had been recorded. Population reduction was assessed after 24, 72, and 120 hours.

[9] = test system: Silverleaf Whitefly (Bemisia argentifolii); experiment: Silverleaf whitefly spray test on cotton plants; details: 72 h, read-out: mortality in comparison with untreated controls
Description: as §1, with “were” for “are”
Cotton plants at the cotyledon stage (one plant per pot) were sprayed by an automated electrostatic plant sprayer equipped with an atomizing spray nozzle. The plants were dried in the sprayer fume hood and then removed from the sprayer. Each pot was placed into a plastic cup and about 10 to 12 whitefly adults (approximately 3-5 days old) were introduced. The insects were collected using an aspirator and a nontoxic Tygon® tubing connected to a barrier pipette tip. The tip, containing the collected insects, was then gently inserted into the soil containing the treated plant, allowing insects to crawl out of the tip to reach the foliage for feeding. Cups were covered with a reusable screened lid. Test plants were maintained in a growth room at about 25° C. and about 20-40% relative humidity for 3 days, avoiding direct exposure to fluorescent light (24 hour photoperiod) to prevent trapping of heat inside the cup. Mortality was assessed 3 days after treatment, compared to untreated control plants.

| Structure (SMILES) | mortality at 300 ppm [1] [%] | mortality at 2500 ppm [2] [%] | mortality at 300 ppm [3] [%] | mortality at 2500 ppm [4] [%] | other results |
| --- | --- | --- | --- | --- | --- |
| Cc1cc(C2=NOC(c3cc(Cl)cc(Cl)c3)(C(F)(F)F)C2)ccc1/C=N/OCC(=O)OC(C)(C)C (centres unmarked) [Compound 1-13, [1-{4-[5-(3,5-Dichloro-phenyl)-5-trifluoromethyl-4,5-dihydro-isoxazol-3-yl]-2-methyl-phenyl}-meth-(E)-ylideneaminooxy]-acetic acid tert-butyl ester] | ≥ 75 | ≥ 75 | ≥ 75 | – | – |
| Cc1cc(C2=NOC(c3cc(Cl)cc(Cl)c3)(C(F)(F)F)C2)ccc1/C=N/OCC(=O)NCC(F)(F)F (centres unmarked) [Compound 1-9, 2-[1-{4-[5-(3,5-Dichloro-phenyl)-5-trifluoromethyl-4,5-dihydro-isoxazol-3-yl]-2-methyl-phenyl}-meth-(E)-ylideneaminooxy]-N-(2,2,2-trifluoro-ethyl)-acetamide] | ≥ 75 | ≥ 75 | ≥ 75 | ≥ 75 | – |
| Cc1cc(C2=NOC(c3cc(Cl)cc(Cl)c3)(C(F)(F)F)C2)ccc1/C=N/NC(=O)c1ccccn1 (centres unmarked) [Compound 1-45, Pyridine-2-carboxylic acid [1-{4-[5-(3,5-dichloro-phenyl)-5-trifluoromethyl-4,5-dihydro-isoxazol-3-yl]-2-methyl-phenyl}-meth-(E)-ylidene]-hydrazide] | – | ≥ 75 | – | ≥ 75 | – |
| COC(=NO)c1ccc(C2=NOC(c3cc(Cl)cc(Cl)c3)(C(F)(F)F)C2)cc1C (single isomer, unassigned) [Compound 1-31, 4-[5-(3,5-Dichloro-phenyl)-5-trifluoromethyl-4,5-dihydro-isoxazol-3-yl]-N-hydroxy-2-methyl-benzimidic acid methyl ester] | – | – | – | – | mortality at 2500 ppm [5]: ≥ 75% |
| COC(=NO)c1ccc(C2=NOC(c3cc(Cl)cc(Cl)c3)(C(F)(F)F)C2)cc1C (single isomer, unassigned) [Compound 1-30, 4-[5-(3,5-Dichloro-phenyl)-5-trifluoromethyl-4,5-dihydro-isoxazol-3-yl]-N-hydroxy-2-methyl-benzimidic acid methyl ester] | ≥ 75 | ≥ 75 | ≥ 75 | ≥ 75 | mortality at 2500 ppm [6]: ≥ 75% |
| Cc1cc(C2=NOC(c3cc(Cl)cc(Cl)c3)(C(F)(F)F)C2)ccc1C(CC(C)C)=NO (centres unmarked) [Compound 1-55, 1-{4-[5-(3,5-Dichloro-phenyl)-5-trifluoromethyl-4,5-dihydro-isoxazol-3-yl]-2-methyl-phenyl}-3-methyl-butan-1-one oxime] | – | ≥ 75 | ≥ 75 | ≥ 75 | – |
| CC(=NO)c1ccc(C2=NOC(c3cc(Cl)cc(Cl)c3)(C(F)(F)F)C2)cc1C (centres unmarked) [Compound 1-17, 1-{4-[5-(3,5-Dichloro-phenyl)-5-trifluoromethyl-4,5-dihydro-isoxazol-3-yl]-2-methyl-phenyl}-ethanone oxime] | – | ≥ 75 | ≥ 75 | ≥ 75 | mortality at 300 ppm [7]: ≥ 75% |
| Cc1cc(C2=NOC(c3cc(Cl)cc(Cl)c3)(C(F)(F)F)C2)ccc1/C=N/OCC(=O)N1CCOCC1 (centres unmarked) [Compound 1-16] | – | – | – | – | mortality in comparison with untreated controls [8]: at least 75% |
| Cc1cc(C2=NOC(c3cc(Cl)cc(Cl)c3)(C(F)(F)F)C2)ccc1/C=N/OCC(=O)O (centres unmarked) [Compound 1-12, [1-{4-[5-(3,5-Dichloro-phenyl)-5-trifluoromethyl-4,5-dihydro-isoxazol-3-yl]-2-methyl-phenyl}-meth-(E)-ylideneaminooxy]-acetic acid] | – | ≥ 75 | – | – | mortality at 300 ppm [9]: ≥ 75%; mortality at 2500 ppm [5]: ≥ 75% |
